Data taken from US20260250290A1 (BRISTOL-MYERS SQUIBB COMPANY, priority 2023, published 2026).
Structures can show the parent of a compound that is named as a salt.

Biological target: T1, full length SGK1 (Homo sapiens, UniProt O00141)
T1 construct: 125 μM full length SGK1 (Life Technologies Part #PR7358A); purchased Life Technologies PR7358A
T1 sequence (O00141 1-431): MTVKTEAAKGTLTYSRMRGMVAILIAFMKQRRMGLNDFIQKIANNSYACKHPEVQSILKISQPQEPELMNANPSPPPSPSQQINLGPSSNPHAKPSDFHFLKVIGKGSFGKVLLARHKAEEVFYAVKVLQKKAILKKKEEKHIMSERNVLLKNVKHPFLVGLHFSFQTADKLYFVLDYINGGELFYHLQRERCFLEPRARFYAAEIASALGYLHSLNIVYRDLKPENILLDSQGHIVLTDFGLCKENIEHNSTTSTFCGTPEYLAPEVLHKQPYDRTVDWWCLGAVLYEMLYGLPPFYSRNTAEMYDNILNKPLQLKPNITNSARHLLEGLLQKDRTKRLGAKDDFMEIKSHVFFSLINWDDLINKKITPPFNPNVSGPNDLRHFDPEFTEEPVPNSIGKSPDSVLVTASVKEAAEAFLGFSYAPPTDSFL
Test: SGK1 inhibition Assay A (Caliper LabChip electrophoretic separation of fluorescent peptide substrate and phosphorylated product)
Format: biochemical
Conditions: Assay A; 20 μM ATP, 40 min incubation; read-out: SGK1 IC50

| IC50 [nM] | Compound |
| --- | --- |
| 64 | CC(=O)N1CC=C(c2cc(N3CCC[C@@H](NC(=O)c4cccc(N(C)C)c4)C3)c3c(N)ncnn23)C1 [Example 465, (R)-N-(1-(7-(1-acetyl-2,5-dihydro-1H-pyrrol-3-yl)-4-aminopyrrolo[2,1-f][1,2,4]triazin-5-yl)piperidin-3-yl)-3-(dimethylamino)benzamide] |
| 2 | Cc1cc(-c2cc(N3CCC[C@@H](NC(=O)c4sc(C(F)F)cc4OC4CCN(C)CC4)C3)c3c(N)ncnn23)cnc1C#N [Example 439, (R)-N-(1-(4-amino-7-(6-cyano-5-methylpyridin-3-yl)pyrrolo[2,1-f][1,2,4]triazin-5-yl)piperidin-3-yl)-5-(difluoromethyl)-3-((1-methylpiperidin-4-yl)oxy)thiophene-2-carboxamide] |
| 318 | CCOC1=C(C(=O)N[C@@H]2CCCN(c3cc(C4=CCN(C(C)=O)C4)n4ncnc(N)c34)C2)CN(CC(F)(F)C(F)(F)F)C1=O [Example 748, (R)-N-(1-(7-(1-acetyl-2,5-dihydro-1H-pyrrol-3-yl)-4-aminopyrrolo[2,1-f][1,2,4]triazin-5-yl)piperidin-3-yl)~4-ethoxy-5-oxo-1-(2,2,3,3,3-pentafluoropropyl)-2,5-dihydro-1H-pyrrole-3-carboxamide] |
| 4 | COC(=O)N1CC=C(c2cc(N3CCC[C@@H](NC(=O)c4sc(Cl)cc4OC4COC4)C3)c3c(N)ncnn23)C1 [Example 567, Methyl (R)-3-(4-amino-5-(3-(5-chloro-3-(oxetan-3-yloxy)thiophene-2-carboxamido)piperidin-1-yl)pyrrolo[2,1-f][1,2,4]triazin-7-yl)-2,5-dihydro-1H-pyrrole-1-carboxylate] |
| 14 | CC(=O)N1CC=C(c2cc(N3CCCC(NC(=O)c4sc(C(F)F)cc4OC4CCN(C(C)C)CC4)C3)c3c(N)ncnn23)C1 (centres unmarked) [compound 442] |
| 25 | CC(=O)N1CC=C(c2cc(N3CCC[C@@H](NC(=O)c4cccc(OCCN5CCOCC5)n4)C3)c3c(N)ncnn23)C1 [Example 700, (R)—N-(1-(7-(1-acetyl-2,5-dihydro-1H-pyrrol-3-yl)-4-aminopyrrolo[2,1-f][1,2,4]triazin-5-yl)piperidin-3-yl)-6-(2-morpholinoethoxy)picolinamide] |

More lines, now with the values behind:

| Compound | IC50 [nM] |
| --- | --- |
| CC(=O)N1CC=C(c2cc(N3CCC[C@@H](NC(=O)c4sc(Cl)cc4OC4CC(N(C)C)C4)C3)c3c(N)ncnn23)C1 (stereo partly drawn) [Example 598, (R)-N-(1-(7-(1-acetyl-2,5-dihydro-1H-pyrrol-3-yl)-4-aminopyrrolo[2,1-f][1,2,4]triazin-5-y1)piperidin-3-y1)-5-chloro-3-(3-(dimethylamino)cyclobutoxy)thiophenc-2-carboxamide] | 6 |
| CN1CCC(Oc2cc(C3CC3)sc2C(=O)N[C@@H]2CCCN(c3cc(-c4ccc(C#N)nc4)n4ncnc(N)c34)C2)CC1 [Example 381, (R)-N-(1-(4-amino-7-(6-cyanopyridin-3-yl)pyrrolo[2,1-f][1,2,4]triazin-5-yl)piperidin-3-yl)-5-cyclopropyl-3-((1-methylpiperidin-4-yl)oxy)thiophene-2-carboxamide] | 6 |
| CS(=O)(=O)c1ccc(-c2cc(N3CCC[C@@H](NC(=O)c4cccc(C(F)(F)F)c4)C3)c3c(N)ncnn23)cc1 [Example 24, (R)-N-(1-(4-amino-7-(4-(methylsulfonyl)phenyl)pyrrolo[2,1-f][1,2,4]triazin-5-yl)piperidin-3-yl)-3-(trifluoromethyl) benzamide] | 41 |
| C[C@@]1(NC(=O)c2ccc(Cl)s2)CCCN(c2cc(-c3ccc(S(C)(=O)=O)cc3)n3ncnc(N)c23)C1 [Example 146, (R)—N-(1-(4-amino-7-(4-(methylsulfonyl)phenyl)pyrrolo[2,1-f][1,2,4]triazin-5-yl)-3-methylpiperidin-3-yl)-5-chlorothiophene-2-carboxamide, TFA] | 835 |
| CS(=O)(=O)c1ccc(-c2cc(N3CCC[C@@H](NC(=O)c4cccc(F)c4)C3)c3c(N)ncnn23)cc1 [Example 53, (R)-N-(1-(4-amino-7-(4-(methylsulfonyl)phenyl)pyrrolo[2,1-f][1,2,4]triazin-5-yl)piperidin-3-yl)-3-fluorobenzamide] | 15 |
